In patent publication US20010011096A1, “Polycyclic thiazol-2-ylidene amines, processes for their preparation and their use as medicaments” (priority 1999, published 2001):
Where “and” joins values, the source holds several entries; their conditions need not be identical. Equal values may be shown once.

Key:
male NMR^1 mice = experiment: Anorectic effect: consumption of condensed milk by fasted mice after administration by gavage; format: in vivo
Procedure: The anorectic effect was tested on male NMR^1 mice. After withdrawal of feed for 24 hours, the test product was administered by gavage. The animals were housed singly and had free access to drinking water and, 30 minutes after administration of the product, they were offered condensed milk. The consumption of condensed milk was determined, and the general behavior of the animals was inspected, every half hour for 7 hours. The measured milk consumption was compared with that of untreated control animals.

| melting point | SMILES | Reduction in the cumulative milk consumption as % of the controls (male NMR^1 mice; oral dose 50 mg/kg by gavage, compared with untreated control animals, 7 hours) [%] | cumulative milk consumption by the treated animals (male NMR^1 mice; oral dose 50 mg/kg by gavage, feed withdrawn 24 hours, milk offered 30 minutes after administration, determined for 7 hours, 5 animals) | Remarks (general behavior / side effects of the animals) (male NMR^1 mice; oral dose 50 mg/kg, behavior inspected every half hour for 7 hours) |
| --- | --- | --- | --- | --- |
|  | Br.c1ccc(Oc2ccc3c(c2)CC2=C3N3CCN=C3S2)cc1 [Example 24, 7-Phenoxy-4H,9H-2,3-dihydroimidazo[2,1-b]indeno[1,2-d]thiazole hydrobromide] | 93 | 5/0.30 ml | none |
| 256 °C | Cl.Cn1c2c(sc1=NCC(=O)O)COc1ccc(F)cc1-2 |  |  |  |
| 231 °C and 230 to 233 °C | Br.CN=c1sc2c(n1C)-c1cccc(-c3ccc(C(F)(F)F)cc3)c1C2 |  |  |  |
| 278 °C | Br.CN1C(=CN)SC2=C1c1ccc(Cl)cc1C2 |  |  |  |
| 250 to 252 °C and 251 °C | CN1C(=CN)SC2=C1c1ccc(Oc3ccc(Cl)cc3)cc1C2.Cl [Example 15, [6-(4-Chlorophenoxy)-3-methyl-3,8-dihydroindeno[1,2-d]thiazol-2-ylidene]methylamine hydrochloride] |  |  |  |
